Experimental findings from US20140045809A1, “CORROLES FOR NEUROPROTECTION AND NEURORESCUE” (priority 2008, published 2014) are described below.

Series [1] deals with RIN-m cells. Briefly: Protection of RIN-m beta cells against H2O2 toxicity (MTT). The settings on record: for cytoprotective effect against H2O2-induced toxicity: H2O2 150 μM. In kind it is cell-based, rat. The method, then: Two insulin-secreting beta cell lines, rat insulinoma (INS-1E) and RIN-m cells, were used to examine the protective effect of corrole 1C-Fe. The cells were cultured at 37° C., in a humid 5% CO2, 95% air environment in regular RPMI-1640 medium (Invitrogen) supplemented with 5% fetal calf serum (FCS).
After 2 days of culture, RIN-m cells (5×10^4 cells/well in 96-well plates) were treated with corrole 1C-Fe (1-50 μM) before addition of 35 μM of H2O2. Cell viability was evaluated by a colorimetric assay for mitochondrial function estimation using the MTT test as previously described (Gassen et al., 1998) and expressed as percentage of control.
RIN-m cells were grown as described in Example 5. After 3 days of culture, RIN-m cells (2.5×10^4 cells/well in 96-well plates) were treated with corroles 1C-Fe or 5C-Fe or porphyrin 1P-Fe (1 and 20 μM), added 30 min prior to treatment with 35 μM H2O2 and further incubated for 24 h. Cell injury was evaluated by MTT test. […] […].
Protective effect of iron(III) corrole complexes against H2O2-induced toxicity (150 μM) was compared to that of manganese(III) corroles and related porphyrin. […].

For series [2], the system named is nitrotyrosine (Ntyr). The series is described as follows: SIN-1-induced cellular protein nitration, nitrotyrosine immunofluorescence in SH-SY5Y cells. The settings on record: 20 μM corrole, SIN-1 700 μM, 24 h. In kind it is cell-based, human. The method, then:
To determine the effect of the corroles on SIN-1-induced cellular protein nitration, SH-SY5Y neuroblastoma cells were treated with SIN-1 (700 μM) in the absence or presence of 20 μM of the corroles 1C-Fe, 2C-Mn, and 3C-Mn. Protein nitration was detected by immunofluorescence analysis using a monoclonal antibody against nitrotyrosine (Ntyr), a biological marker of peroxynitrite.

In series [3] the test system is cleaved caspase-3. The series is described as follows: Cleaved caspase-3 level in 6-OHDA-treated SH-SY5Y cells, immunofluorescence. Conditions: 20 μM, 30 min before 6-OHDA (40 μM), 24 h. It counts as cell-based, human. The method, then: SH-SY5Y cells were pretreated with or without corroles 1C-Fe, 2C-Mn and 3C-Mn and porphyrins 1P-Fe and 2P-Mn (20 μM), 30 min before exposure to 6-OHDA (40 μM) for a subsequent 24 h period. Cell viability was evaluated by MTT test and cell death was assessed using the apoptotic cell death detection ELISA kit. For neurorescue, SH-SY5Y cells were first exposed to 40 μM 6-OHDA for 0.5. 1, 1.5 and 3 h, followed by the addition of the compounds 1C-Fe, 2C-Mn and 3C-Mn (20 μM) and incubated for further 24 h. Growth-associated protein (GAP-43) was detected by fluorescence microscopy using a specific primary antibody. Apoptotic nuclei were determined by terminal deoxynucleotidyl transferase-mediated UTP-digoxigenin nick end labeling analysis. 4′,6-Diamidino-2-phenylnidole (DAPI) staining was applied for nuclear labeling. […]
Since 6-OHDA is also known to induce apoptosis in various cell types, including SH-SY5Y (von Coelln et al. 2001; Nie et al. 2002; Shimizu et al. 2002; Jordan et al. 2004), we further tested effect of corroles on the levels of the apoptotic marker, cleaved caspase-3, a major executer of the mitochondrial intrinsic pathway of apoptosis.

Series [4] has as its system SH-SY5Y cells. The series is described as follows: Neuroprotection/neurorescue against SIN-1-induced cell death in SH-SY5Y cells. It counts as cell-based, human. Conditions: for protection against SIN-1 (MTT reduction analysis and ELISA assay): 30 min before SIN-1, 24 h (Example 12). Here is the method:
SH-SY5Y cells were cultured in DMEM-Eagle/F-12(HAM) (1:1) containing 10% FCS. Cells were resuspended in medium containing 2% FCS, seeded in microtiter plates (96 wells) and allowed to attach for 24 h before initiation of treatment. […]
(In general: Tetrazolium assays rely on reduction of a dye to a coloured formazan, in cell work by metabolically active cells.)

Series [5] deals with RIN-m cells. Briefly: Protection of RIN-m cells against SIN-1 toxicity (MTT). In kind it is cell-based, rat. The settings on record: 24 h; for protective effect against SIN-1 induced toxicity (MTT), comparative: 0.1-20 μM, 30 min before SIN-1 (800 μM). The method, then:
INS-1E cells or RIN-m cells were cultured in RPMI with low serum content (2% FCS), placed in microtiter plates (96 wells) at a density of 2.5×10^4 cells/well and allowed to attach for 24 h before treatment. Corroles 1C-Fe and 5C-Fe (10 μM) were added 30 min prior to insult with the nitric oxide donor SIN-1 (500 or 600 μM) for a subsequent 24 h period. Cell viability was evaluated by a colorimetric assay for mitochondrial function using 3-(4,5-dimethylthiazol-2-yl)-2,5-diphenyltetrazolium bromide (MTT test), and expressed as percentage of untreated control. Values higher than 100% reflect increased mitochondrial activity induced by the drug. The results represent the mean±SEM of three independent experiments performed under the same conditions.
Insulin-secreting RIN-m cells were incubated in RPMI with low serum content (2% FCS) and placed in microtiter plates (96 wells) at a density of 2.5×10^4 cells/well and allowed to attach for 24 h before treatment. Cells were treated with corroles 1C-Fe, 1C-Mn or 2C-Mn or porphyrins 1P-Fe or 2P-Mn, in various concentrations (0.1-20 μM), for 30 min prior to insult with SIN-1 (800 μM) for a subsequent 24 h period. Cell viability was evaluated by MTT test and expressed as percentage of untreated control.

The test system of series [6] is NSC-34 cells. In kind it is cell-based, mouse. The settings on record: 20 μM, 24 h; for SIN-1-induced cytotoxicity (MTT and ELISA): 30 min before SIN-1 (700 μM). The method, then:
The neuroprotective effects of the iron corrole 1C-Fe and analogous porphyrin 1P-Fe against H2O2 insult were further examined in the motor neuron cell line, NSC-34. NSC-34 cell is a hybrid neuroblastoma x spinal cord (NSC) cell line that resembles motor neurons, displaying a multipolar neuron-like phenotype. Mouse motoneuronal NSC-34 cells were pretreated with or without the corroles 1C-Fe or 2C-Mn or the structurally-related porphyrins 1P-Fe, 2P-Mn, respectively, 30 min before exposure to H2O2 (200 μM) or SIN-1 (700 μM) for a subsequent 24 h period. Cell viability (FIGS. 18A, 19A) was evaluated by MTT test and cell death (FIGS. 18B, 19B) was assessed using the apoptotic cell death detection ELISA kit. [The graphs in FIGS. 18A-18B and 19A-19B present results expressed as percentage of untreated control.
In general terms: An ELISA detects its analyte on a solid surface through an enzyme-linked reagent.

Series [7] can be described thus: SOD activity (catalytic decomposition of superoxide anion radical), cytochrome C assay. It counts as biochemical. Here is the method: SOD activity (enzyme-like catalytic decomposition of superoxide anion radical) of the corroles 1C-Fe, 6C-Fe, 1C-Mn, 1C-Cu, 2C-Mn and 3C-Mn was examined via the cytochrome C assay. The catalytic rate constants for decomposition of peroxynitrite (PN) by the newly prepared iron corrole 6C-Fe and manganese corrole 3C-Mn were determined via stopped-flow kinetics as previously described for corroles 1C-Fe, 1C-Mn, and 2C-Mn (Mahammed and Gross, 2006; Gershman et al., 2007). These tests are performed in order to estimate how electronic and structural variables affect reactivity, which is a crucial factor for design of new complexes.

SMILES strings stand for the structures. Entries after “also recorded” stand apart in the source; their conditions may differ.

As a reminder, the IC50 is the concentration at which inhibition is half-maximal.

Take `O=S(=O)(O)c1cc2[n]3c1C(c1c(F)c(F)c(F)c(F)c1F)=C1C=CC4=[N+]1[Fe-]31[n]3c(cc(S(=O)(=O)O)c3-2)C(c2c(F)c(F)c(F)c(F)c2F)=c2ccc([n]21)=C4c1c(F)c(F)c(F)c(F)c1F` (stereo not shown) [1C-Fe, 2,17-bis(sulfonato)-5,10,15-tris(pentafluorophenyl)-corrolato iron(III)]: the “protective effect against H2O2 toxicity relative to porphyrin 1P-Fe (MTT)” value in series [1] (20 μM, 30 min before 35 μM H2O2, 24 h) is on record as “exhibit a greater protective effect”. Besides, the “protective effect against H2O2 toxicity (MTT)” value in series [1] (1-50 μM before 35 μM H2O2) is reported as “significant protective effect”. The “cytoprotective effect against H2O2-induced toxicity” value in series [1] is listed as “showed cytoprotective effects”. For the same compound, in series [2], the “nitrotyrosine (Ntyr) staining, SIN-1-induced” value is reported as “partial (albeit quite remarkable) reduction in Ntyr staining”. Moreover, the “6-OHDA-induced increase of cleaved caspase-3” value in series [3] is given as “abolished partially”. For the same compound, the “neurorescue after SIN-1 insult” value in series [4] (20 μM added 0.5, 1.5 or 3 h after insult, 24 h (Example 11)) is recorded as “instigated neurorescue”. In addition, the “cytoprotection against different SIN-1 concentrations” value in series [4] (25 μM corrole, FIG. 12C) is “protect cells against different SIN-1 concentrations”. For the same compound, the “neuroprotective effect against SIN-1 induced toxicity” value in series [4] (10 and 20 μM, 30 min pretreatment, 24 h (Example 11)) is on record as “dose-dependent neuroprotective effect”. Also, the “inhibition of neuronal death by SIN-1” value in series [4] (10 and 20 μM, less potent than 2C-Mn and 3C-Mn) is on record as “able to inhibit neuronal death”. In series [4], the “protection against SIN-1 (MTT reduction analysis and ELISA assay)” value is given as “protect, in a dose-dependent manner”. Moreover, in series [5] (10 μM, 30 min before SIN-1 (500 or 600 μM)), the “protective effect against SIN-1 induced toxicity (MTT)” value is recorded as “marked protective effect”. Besides, the “protective effect against SIN-1 induced toxicity (MTT), comparative” value in series [5] is listed as “successful; also recorded: exhibits a greater protective effect”. In addition, the “protection against H2O2-mediated cytotoxicity (MTT and ELISA)” value in series [6] (30 min before H2O2 (200 μM)) is “significant protection”. For the same compound, in series [6], the “SIN-1-induced cytotoxicity (MTT and ELISA)” value was “significantly attenuated”. Moreover, in series [7], the midpoint of inhibition, the IC50, lay at 1640 nM.

With `C[n+]1ccc(C2=C3C=CC4=[N+]3[Mn-]35[n]6c2ccc6-c2ccc([n]23)C(c2cc[n+](C)cc2)=c2ccc([n]25)=C4c2c(F)c(F)c(F)c(F)c2F)cc1.[I-].[I-]` (stereo not shown) [2C-Mn, 5,15-bis(4-N-methyl-pyridilium)-10-pentafluorophenyl-corrolato manganese(III) diiodide salt], the “cytoprotective effect against H2O2-induced toxicity” value in series [1] was “totally inefficient; also recorded: inefficiency”. Besides, the “nitrotyrosine (Ntyr) staining, SIN-1-induced” value in series [2] was “totally abolished”. Also, the “6-OHDA-induced increase of cleaved caspase-3” value in series [3] is reported as “totally”. Further, the “protection against SIN-1 (MTT reduction analysis and ELISA assay)” value in series [4] is listed as “protect, in a dose-dependent manner”. Besides, the “protective effect against SIN-1 induced toxicity (MTT), comparative” value in series [5] is on record as “successful; also recorded: unequivocally in favor of the former; also recorded: improved protective effect”. For the same compound, in series [6], the “SIN-1-induced cytotoxicity (MTT and ELISA)” value is “significantly attenuated”. In series [7], this compound registered an IC50 of 1520 nM.
